{"source": "patent US9765115B2", "about": "“Inhibitors of metastasis, methods of generating such inhibitors and their therapeutic applications” (Board of Supervisors of Louisiana State University acting …, priority 2011, dated 2017)", "key": {"[1]": {"system": "UMUC3, RT4, A2780, OVCAR8 and A549 cancer cell lines", "assay": "Transepithelial electric resistance (TER) in other cancer cell lines", "format": "cell-based, human", "method": "Cells were plated on Transwell filters (0.4 μm pore size) and grown to confluency in complete medium (RPMI1640 containing 10% fetal bovine serum, 20 mM HEPES and antibiotics). TER of the cultures (in duplicate wells) was measured at several time intervals with EVOM volt-ohm meter as previously described (Shah et al, 2009). The readings were corrected for blank (TER values from the filter in bathing medium). The integrity and cell density of monolayers were carefully monitored.\nNext, whether CTR destabilizes tight junctions and increases invasion in these cancers was tested by examining the effect of CT on transepithelial electric resistance (TER), paracellular permeability (PCP) and invasion in cancer cell lines derived from bladder cancer (UMUC3 and RT4), ovarian cancer (A2780 and OVCAR8), and lung cancer (A549). Prostate cancer cell line PC-3CTR was used a reference line. […] This was further confirmed by the actions of CT on PCP (FIG. 26A) and cell invasion (FIG. 26B). […] The role of CT-CTR axis is to destabilize junction complexes and increase invasion in cancers as diverse as prostate, bladder, lung and ovarian cancers."}, "[2]": {"system": "calcitonin receptor (CTR)", "sequence (P30988 25-470 limits assumed)": "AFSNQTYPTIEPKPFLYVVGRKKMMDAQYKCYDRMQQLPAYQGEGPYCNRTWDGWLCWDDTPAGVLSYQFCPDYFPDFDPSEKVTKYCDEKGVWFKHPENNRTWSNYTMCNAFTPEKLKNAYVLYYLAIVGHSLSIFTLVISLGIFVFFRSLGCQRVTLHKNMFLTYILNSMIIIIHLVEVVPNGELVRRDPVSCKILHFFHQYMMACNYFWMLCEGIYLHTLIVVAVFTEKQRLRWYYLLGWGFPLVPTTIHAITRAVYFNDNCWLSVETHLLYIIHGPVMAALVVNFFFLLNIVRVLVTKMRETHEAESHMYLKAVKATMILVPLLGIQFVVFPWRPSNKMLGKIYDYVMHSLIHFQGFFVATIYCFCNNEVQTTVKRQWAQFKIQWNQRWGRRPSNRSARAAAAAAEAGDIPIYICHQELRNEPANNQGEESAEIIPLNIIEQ", "assay": "cAMP accumulation (radioimmunoassay) in PC-3 CTRwt and PC-3 CTRΔESS cells", "format": "cell-based, human", "settings": "3 min", "method": "PC-3CTRwt and PC-3CTRΔESS cells were treated with/without 50 nM CT for three min, washed and harvested in lysis buffer (50 mM Tris, pH 7.5, containing 5 mM EDTA, 50 mM NaF, 1 mM sodium pyrophosphate, 0.5 mM EGTA, 10 mM β-mercaptoethanol, leupeptin, 1 μg/ml; and aprotinin, 1 μg/ml). The lysates were analyzed for cAMP levels by radioimmunoassay (Perkin Elmer, Shelton, Conn.).\nFIG. 1C depicts photomicrographs showing CTRwt and CTRΔESS (a mutant) localized to the plasma membrane (at 400×) in PC-3 cells. To examine the ability of CTRwt and CTRΔESS to activate its G protein-coupled effectors, the effect of 50 nM CT was examined on cAMP accumulation and PKA and PKC activity. […] FIG. 1D depicts the effect of 50 nM CT on cAMP accumulation in PC-3 CTRwt and PC-3 CTRΔESS cells stimulated with or without 50 nM CT for 3 min. The cells were lysed, and the lysates were analyzed for cAMP levels by radioimmunoassay (*p<0.01 (paired t-test)).\nThe effect of CT on cAMP was further tested in a dose-response study where the response to CT at multiple doses (between 0-100 nM) was examined. FIG. 1G depicts cAMP accumulation in PC-3 CTR and PC-3 CTRΔESS cells in response to CT at multiple doses (between 0-100 nM) stimulated for 3 min (*p<0.01 (One-way ANOVA and Newman-Keuls test))."}}, "data": [{"substance": "calcitonin [CT]", "values": [{"measurement": "response to CT", "setting": "[1]; aggressive cell lines", "result": "responded extremely well"}, {"measurement": "response to CT", "setting": "[1]; well-differentiated lines RT4 and OVCAR8", "result": "responded poorly"}, {"measurement": "TER", "setting": "[1]; with CT, all these cell lines", "result": "decreased TER"}, {"measurement": "cAMP accumulation", "setting": "[2]; 50 nM CT, PC-3 CTRwt and PC-3CTRΔESS cells", "result": "stimulated cAMP production"}, {"measurement": "cAMP accumulation, dose-response", "setting": "[2]; CT 0-100 nM, CTRwt and CTRΔESS cells, all doses", "result": "significantly increased"}]}]}
